Test results published in patent US8487108B2, “Piperidinyl carbamate intermediates for the synthesis of aspartic protease inhibitors” (Vitae Pharmaceuticals, Inc., priority 2005, dated 2013).

target: T1, trypsin-activated recombinant human renin (Homo sapiens, UniProt P00797); assay: Renin fluorescence assay (internally quenched peptide substrate); format: biochemical; conditions: compounds I*
T1 sequence (P00797 67-406): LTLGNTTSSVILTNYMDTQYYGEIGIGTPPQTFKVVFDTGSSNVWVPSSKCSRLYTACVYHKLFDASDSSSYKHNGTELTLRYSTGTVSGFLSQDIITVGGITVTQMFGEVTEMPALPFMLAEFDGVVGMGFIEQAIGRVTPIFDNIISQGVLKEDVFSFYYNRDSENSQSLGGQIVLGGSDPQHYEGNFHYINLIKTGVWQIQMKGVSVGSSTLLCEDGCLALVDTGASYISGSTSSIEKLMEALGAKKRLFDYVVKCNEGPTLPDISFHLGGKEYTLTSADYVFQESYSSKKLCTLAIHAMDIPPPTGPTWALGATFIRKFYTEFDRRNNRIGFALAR
Experimental: The sequence of this peptide corresponds to the sequence of human angiotensinogen. The following test protocol can be used. All reactions are carried out in a flat bottom white opaque microtiter plate. A 4 μL aliquot of 400 μM renin substrate (DABCYL-γ-[…]) in 192 μL assay buffer (50 mM BES, 150 mM NaCl, 0.25 mg/mL bovine serum albumin, pH7.0) is added to 4 μL of test compound in DMSO at various concentrations ranging from 10 μM to 1 nM final concentrations. Next, 100 μL of trypsin-activated recombinant human renin (final enzyme concentration of 0.2-2 nM) in assay buffer is added, and the solution is mixed by pipetting. The increase in fluorescence at 495 nm (excitation at 340 nm) is measured for 60-360 minutes at rt using a Perkin-Elmer Fusion microplate reader. The slope of a linear portion of the plot of fluorescence-increase as a function of time is then determined, and the rate is used for calculating percent inhibition in relation to uninhibited control. […] (Wang G. T. et al. Anal. Biochem. 1993, 210, 351; Nakamura, N. et al. J. Biochem. (Tokyo) 1991, 109, 741; Murakami, K. et al. Anal Biochem. 1981, 110, 232).

| SMILES | IC50 [nM] |
| --- | --- |
| COC(=O)NCCO[C@@H](c1cccc(Cl)c1)[C@@H]1CCCN(C(=O)N[C@H]2CNC[C@@H]2CC(C)C)C1 (relative stereo) [I*-11a, methyl 2-((R)-(3-chlorophenyl)((R)-1-((3R*,4S*)-4-isobutylpyrrolidin-3-ylcarbamoyl)piperidin-3-yl)methoxy)ethylcarbamate] | < 50 |
| COC(=O)NCCO[C@@H](c1cccc(Cl)c1)[C@@H]1CCCN(C(=O)N[C@@H]2CNCC[C@H]2CC2CCC2)C1 (relative stereo) [I*-44a, methyl 2-((R)-(3-chlorophenyl)((R)-1-((3S*,4R*)-4-(cyclobutylmethyl)piperidin-3-ylcarbamoyl)piperidin-3-yl)methoxy)ethylcarbamate] | < 10 |
| CCC(C)(C)C[C@@H](CNC)NC(=O)N1CCC[C@@H]([C@@H](OCCNC(=O)OC)c2cccc(F)c2)C1 [I*-7a, methyl 2-((R)-((R)-1-((S)-4,4-dimethyl-1-(methylamino)hexan-2-ylcarbamoyl)piperidin-3-yl)(3-fluorophenyl)methoxy)ethylcarbamate] | < 10 |
| CNC[C@H](CC1CCCCC1)NC(=O)N1CCC[C@@H]([C@@H](OCCNC(=O)OC)c2cccs2)C1 [I*-9a, methyl 2-((R)-((R)-1-((S)-1-cyclohexyl-3-(methylamino)propan-2-ylcarbamoyl)piperidin-3-yl)(thiophen-2-yl)methoxy)ethylcarbamate] | < 1 |
| CNC[C@H](CC1CCCCC1)NC(=O)N1CCC[C@@H]([C@@H](OCCNC(=O)OC)C2CCCCC2)C1 [I*-10a, methyl 2-((S)-cyclohexyl((R)-1-((S)-1-cyclohexyl-3-(methylamino)propan-2-ylcarbamoyl)piperidin-3-yl)methoxy)ethylcarbamate] | < 10 |
| CNC[C@H](CC1CCCCC1)NC(=O)N1CCC[C@@H]([C@H](OCCNC(=O)OC)c2nccs2)C1 [I*-12a, methyl 2-((S)-((R)-1-((S)-1-cyclohexyl-3-(methylamino)propan-2-ylcarbamoyl)piperidin-3-yl)(thiazol-2-yl)methoxy)ethylcarbamate] | > 50 |
| CNC[C@H](CC1CCCCC1)NC(=O)N1CCC[C@@H]([C@@H](OCCNC(=O)OC)c2nccs2)C1 [I*-13a, methyl 2-((R)-((R)-1-((S)-1-cyclohexyl-3-(methylamino)propan-2-ylcarbamoyl)piperidin-3-yl)(thiazol-2-yl)methoxy)ethylcarbamate] | < 20 |
| COCC(C)(C)C[C@H](N)CNC(=O)N1CCC[C@@H]([C@@H](OCCNC(=O)OC)c2cccc(F)c2)C1 [I*-14a, methyl 2-((R)—((R)-1-((S)-2-amino-5-methoxy-4,4-dimethylpentylcarbamoyl)piperidin-3-yl)(3-fluorophenyl)methoxy)ethylcarbamate] | > 50 |
| CNC[C@H](CC1CCOCC1)NC(=O)N1CCC[C@@H]([C@@H](OCCNC(=O)OC)c2cccs2)C1 [I*-15a, methyl 2-((R)-((R)-1-((S)-1-(methylamino)-3-(tetrahydro-2H-pyran-4-yl)propan-2-ylcarbamoyl)piperidin-3-yl)(thiophen-2-yl)methoxy)ethylcarbamate] | > 50 |
| CNC[C@H](CC1CCOCC1)NC(=O)N1CCC[C@@H]([C@H](OCCNC(=O)OC)c2cccs2)C1 [I*-16a, methyl 2-((S)-((R)-1-((S)-1-(methylamino)-3-(tetrahydro-2H-pyran-4-yl)propan-2-ylcarbamoyl)piperidin-3-yl)(thiophen-2-yl)methoxy)ethylcarbamate] | > 50 |
| CNC[C@H](CC1CCCCC1)NC(=O)N1CCC[C@@H]([C@H](CCCNC(=O)OC)c2cccc(F)c2)C1 [I*-22a, methyl (S)-4-((S)-1-((S)-1-cyclohexyl-3-(methylamino)propan-2-ylcarbamoyl)piperidin-3-yl)-4-(3-fluorophenyl)butylcarbamate] | > 50 |
| CNC[C@H](CC1CCCCC1)NC(=O)N1CCC[C@@H]([C@@H](CCCNC(=O)OC)c2cccc(F)c2)C1 [I*-23a, methyl (R)-4-((S)-1-((S)-1-cyclohexyl-3-(methylamino)propan-2-ylcarbamoyl)piperidin-3-yl)-4-(3-fluorophenyl)butylcarbamate] | < 10 |

Other lines, results leading:

| IC50 [nM] | SMILES |
| --- | --- |
| < 10 | CNC[C@H](CC1CCCCC1)NC(=O)N1CCC[C@@H]([C@@H](OCCNC(=O)OC)c2ccccc2)C1 (mixture of isomers) [I*-2a, methyl 2-((R)—((R)-1-((±)-1-cyclohexyl-3-(methylamino)propan-2-ylcarbamoyl)piperidin-3-yl)(phenyl)methoxy)ethylcarbamate] |
| < 20 | CNC[C@@H](C[C@H]1CCCC[C@@H]1O)NC(=O)N1CCC[C@@H]([C@@H](OCCNC(=O)OC)c2cccc(Cl)c2)C1 (relative stereo) [I*-104a, methyl 2-((R)-(3-chlorophenyl)((R)-1-((R)-1-((1R*,2S*)-2-hydroxycyclohexyl)-3-(methylamino)propan-2-ylcarbamoyl)piperidin-3-yl)methoxy)ethylcarbamate] |
| < 10 | CNC[C@H](C[C@H]1CCCC[C@@H]1O)NC(=O)N1CCC[C@@H]([C@@H](OCCNC(=O)OC)c2cccc(Cl)c2)C1 (relative stereo) [I*-105a, methyl 2-((R)-(3-chlorophenyl)((R)-1-((S)-1-((1R,2S)-2-hydroxycyclohexyl)-3-(methylamino)propan-2-ylcarbamoyl)piperidin-3-yl)methoxy)ethylcarbamate] |
| > 50 | CNC[C@H](CCCOC)NC(=O)N1CCC[C@@H]([C@@H](OCCNC(=O)OC)c2cccc(Cl)c2)C1 [I*-1a] |
| < 50 | CNC[C@H](CC1CCOCC1)NC(=O)N1CCC[C@@H]([C@@H](OCCNC(=O)OC)c2ccccc2)C1 [I*-3a, methyl 2-((R)—((R)-1-((S)-4-(methylamino)-3-(tetrahydro-2H-pyran-4-yl)propan-2-ylcarbamoyl)piperidin-3-yl)(phenyl)methoxy)ethylcarbamate] |
| < 1 | COC(=O)NCCO[C@@H](c1cccc(F)c1)[C@@H]1CCCN(C(=O)N[C@H](CN)CC2CCCCC2)C1 [I*-4a, methyl 2-((R)-((R)-1-((S)-1-amino-3-cyclohexylpropan-2-ylcarbamoyl)piperidin-3-yl)(3-fluorophenyl)methoxy)ethylcarbamate] |
| < 10 | CNC[C@H](CC1CCCC1)NC(=O)N1CCC[C@@H]([C@@H](OCCNC(=O)OC)c2cccc(F)c2)C1 [I*-5a, methyl 2-((R)—((R)-1-((S)-1-cyclopentyl-3-(methylamino)propan-2-ylcarbamoyl)piperidin-3-yl)(3-fluorophenyl)methoxy)ethylcarbamate] |
| > 50 | CNC[C@H](CC1CCOC1)NC(=O)N1CCC[C@@H]([C@@H](OCCNC(=O)OC)c2cccc(F)c2)C1 (stereo partly drawn) [I*-6a, methyl 2-((R)-(3-fluorophenyl)((3R)-1-((S)-1-(methylamino)-3-(tetrahydrofuran-3-yl)propan-2-ylcarbamoyl)piperidin-3-yl)methoxy)ethylcarbamate] |
| < 1 | CNC[C@H](CC1CCCCC1)NC(=O)N1CCC[C@@H]([C@@H](OCCNC(=O)OC)c2cccc(C)c2)C1 [I*-18a, methyl 2-((R)-((R)-1-((S)-1-cyclohexyl-3-(methylamino)propan-2-ylcarbamoyl)piperidin-3-yl)(m-tolyl)methoxy)ethylcarbamate] |
| < 10 | CNC[C@@H](NC(=O)N1CCC[C@@H]([C@@H](OCCNC(=O)OC)c2ccccc2)C1)[C@@H](O)C1CCCCC1 [I*-19a, methyl 2-((R)—((R)-1-((1S,2R)-1-cyclohexyl-1-hydroxy-3-(methylamino)propan-2-ylcarbamoyl)piperidin-3-yl)(phenyl)methoxy)ethylcarbamate] |
| < 50 | CNC[C@H](CC1CCOCC1)NC(=O)N1CCC[C@@H]([C@@H](OCCNC(=O)OC)c2cccc(C)c2)C1 [I*-20a, methyl 2-((R)-((R)-1-((S)-1-(methylamino)-3-(tetrahydro-2H-pyran-4-yl)propan-2-ylcarbamoyl)piperidin-3-yl)(m-tolyl)methoxy)ethylcarbamate] |
| < 10 | CNC[C@H](C[C@H]1CCCCOC1)NC(=O)N1CCC[C@@H]([C@@H](OCCNC(=O)OC)c2ccccc2)C1 [I*-21a, Methyl 2-((R)—((R)-1-((S)-1-(methylamino)-3-((R)-oxepan-3-yl)propan-2-ylcarbamoyl)piperidin-3-yl)(phenyl)methoxy)ethylcarbamate] |
| < 1 | CNC[C@H](CC1CCCC1)NC(=O)N1CCC[C@@H]([C@@H](OCCNC(=O)OC)c2cc(F)ccc2C)C1 [I*-24a, methyl 2-((R)—((R)-1-((S)-1-cyclopentyl-3-(methylamino)propan-2-ylcarbamoyl)piperidin-3-yl)(5-fluoro-2-methylphenyl)methoxy)ethylcarbamate] |
